Test results published in paper PMC8429728, “TNK1 is a ubiquitin-binding and 14-3-3-regulated kinase that can be targeted to block tumor growth” (Nature Communications, 2021).
Read-outs that look alike come from different tables or passages of the source.

What was measured:
Assay in all cases: biochemical
Parameters in all cases: Reaction Biology 371-kinase panel at Km ATP, per cent enzyme activity relative to DMSO, single dose in duplicate
Conditions in all cases: duplicate measurements, Km ATP
MKK7 = target: T1, MKK7 (Homo sapiens, UniProt O14733)
T1 construct: gene MAP2K7
In short: (§1)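 Compound screened at 300 nM in vitro across a 371-kinase panel. Enzyme activity expressed as % of DMSO controls. IC50 values came from sigmoidal variable-slope dose-response fits with the bottom fixed at 0.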

MUSK = MUSK (Homo sapiens, UniProt O15146)
In short: as §1

ULK2 = ULK2 (Homo sapiens, UniProt Q8IYT8)
In short: as §1

TAOK1 = TAOK1 (Homo sapiens, UniProt Q7L7X3)
Chain of TAOK1 (Q7L7X3 whole entry): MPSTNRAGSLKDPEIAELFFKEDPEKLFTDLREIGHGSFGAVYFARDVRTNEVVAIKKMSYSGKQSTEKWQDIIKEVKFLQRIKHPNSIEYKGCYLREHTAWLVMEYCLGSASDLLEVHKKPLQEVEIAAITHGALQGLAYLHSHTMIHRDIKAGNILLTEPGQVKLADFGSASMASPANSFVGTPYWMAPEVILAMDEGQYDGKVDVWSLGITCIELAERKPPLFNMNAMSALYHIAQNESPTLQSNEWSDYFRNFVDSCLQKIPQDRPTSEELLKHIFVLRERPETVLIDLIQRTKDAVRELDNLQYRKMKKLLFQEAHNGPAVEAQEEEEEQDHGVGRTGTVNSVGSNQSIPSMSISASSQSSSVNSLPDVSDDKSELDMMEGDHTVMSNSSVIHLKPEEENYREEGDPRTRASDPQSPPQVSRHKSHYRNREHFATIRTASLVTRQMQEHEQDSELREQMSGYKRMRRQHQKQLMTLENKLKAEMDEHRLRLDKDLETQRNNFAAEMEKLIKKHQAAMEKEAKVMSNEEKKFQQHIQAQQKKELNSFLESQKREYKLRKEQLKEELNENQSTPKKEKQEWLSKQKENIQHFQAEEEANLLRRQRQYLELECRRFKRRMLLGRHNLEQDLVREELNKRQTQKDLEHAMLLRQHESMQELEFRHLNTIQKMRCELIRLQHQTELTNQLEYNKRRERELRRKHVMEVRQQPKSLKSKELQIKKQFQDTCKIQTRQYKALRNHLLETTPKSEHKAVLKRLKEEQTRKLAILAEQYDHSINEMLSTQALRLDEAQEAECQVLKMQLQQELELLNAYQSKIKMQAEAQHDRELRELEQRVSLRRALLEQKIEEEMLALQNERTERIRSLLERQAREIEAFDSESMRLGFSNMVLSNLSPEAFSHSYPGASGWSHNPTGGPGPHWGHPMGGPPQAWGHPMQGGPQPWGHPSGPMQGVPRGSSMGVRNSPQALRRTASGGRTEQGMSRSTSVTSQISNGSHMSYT
In short: as §1

MEKK6 = target: T2, MEKK6 (Homo sapiens, UniProt O95382)
T2 construct: gene MAP3K6
In short: as §1

MSK1/RPS6KA5 = MSK1/RPS6KA5 (Homo sapiens, UniProt O75582)
Chain of MSK1/RPS6KA5 (O75582 whole entry): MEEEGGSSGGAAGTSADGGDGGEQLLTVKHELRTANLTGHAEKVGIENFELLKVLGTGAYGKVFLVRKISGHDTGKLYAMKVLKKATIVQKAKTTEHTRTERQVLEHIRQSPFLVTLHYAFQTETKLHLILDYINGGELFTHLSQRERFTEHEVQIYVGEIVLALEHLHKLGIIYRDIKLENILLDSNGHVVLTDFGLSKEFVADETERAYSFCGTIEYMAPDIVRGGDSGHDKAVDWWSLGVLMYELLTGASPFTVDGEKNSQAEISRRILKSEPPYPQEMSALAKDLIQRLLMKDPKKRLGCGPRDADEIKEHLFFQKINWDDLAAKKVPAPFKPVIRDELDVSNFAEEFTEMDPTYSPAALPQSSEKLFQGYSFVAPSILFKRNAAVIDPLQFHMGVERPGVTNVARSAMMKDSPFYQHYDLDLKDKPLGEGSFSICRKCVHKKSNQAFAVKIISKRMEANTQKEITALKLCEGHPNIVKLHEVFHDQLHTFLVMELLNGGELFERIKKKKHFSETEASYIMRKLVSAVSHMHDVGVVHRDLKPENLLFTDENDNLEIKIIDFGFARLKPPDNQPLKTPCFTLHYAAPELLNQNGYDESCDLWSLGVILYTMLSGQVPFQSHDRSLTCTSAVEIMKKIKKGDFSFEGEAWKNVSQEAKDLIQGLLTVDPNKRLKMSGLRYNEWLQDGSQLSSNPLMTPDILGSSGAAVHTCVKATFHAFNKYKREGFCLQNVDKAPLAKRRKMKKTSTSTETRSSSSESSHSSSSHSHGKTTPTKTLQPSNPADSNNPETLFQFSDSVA
In short: as §1

PKCb2 = target: T3, PKCb2 (Homo sapiens, UniProt P05771)
T3 construct: gene PRKCB; isoform beta II
T3 sequence (P05771 whole entry, canonical isoform): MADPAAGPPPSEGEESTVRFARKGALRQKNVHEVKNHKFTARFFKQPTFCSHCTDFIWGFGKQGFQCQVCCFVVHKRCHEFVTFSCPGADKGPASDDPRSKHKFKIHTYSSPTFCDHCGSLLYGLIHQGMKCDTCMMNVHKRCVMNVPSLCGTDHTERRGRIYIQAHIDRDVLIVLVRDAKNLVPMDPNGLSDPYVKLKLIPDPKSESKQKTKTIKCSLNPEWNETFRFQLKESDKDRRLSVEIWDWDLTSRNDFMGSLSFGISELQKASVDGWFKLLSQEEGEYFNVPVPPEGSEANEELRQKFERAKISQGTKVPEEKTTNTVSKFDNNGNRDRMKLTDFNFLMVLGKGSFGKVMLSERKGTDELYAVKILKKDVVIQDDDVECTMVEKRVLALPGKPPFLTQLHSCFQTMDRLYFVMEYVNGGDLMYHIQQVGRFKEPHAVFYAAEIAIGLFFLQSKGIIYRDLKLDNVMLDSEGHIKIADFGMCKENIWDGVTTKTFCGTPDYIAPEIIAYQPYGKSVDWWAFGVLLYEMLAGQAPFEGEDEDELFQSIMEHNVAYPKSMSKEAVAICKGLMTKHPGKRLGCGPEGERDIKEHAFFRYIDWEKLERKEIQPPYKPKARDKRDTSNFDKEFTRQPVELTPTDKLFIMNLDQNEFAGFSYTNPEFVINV
In short: as §1

MSSK1/STK23 = target: T4, MSSK1/STK23 (Homo sapiens, UniProt Q9UPE1)
T4 construct: gene SRPK3
In short: as §1

MAPKAPK3 = MAPKAPK3 (Homo sapiens, UniProt Q16644)
Chain of MAPKAPK3 (Q16644 whole entry): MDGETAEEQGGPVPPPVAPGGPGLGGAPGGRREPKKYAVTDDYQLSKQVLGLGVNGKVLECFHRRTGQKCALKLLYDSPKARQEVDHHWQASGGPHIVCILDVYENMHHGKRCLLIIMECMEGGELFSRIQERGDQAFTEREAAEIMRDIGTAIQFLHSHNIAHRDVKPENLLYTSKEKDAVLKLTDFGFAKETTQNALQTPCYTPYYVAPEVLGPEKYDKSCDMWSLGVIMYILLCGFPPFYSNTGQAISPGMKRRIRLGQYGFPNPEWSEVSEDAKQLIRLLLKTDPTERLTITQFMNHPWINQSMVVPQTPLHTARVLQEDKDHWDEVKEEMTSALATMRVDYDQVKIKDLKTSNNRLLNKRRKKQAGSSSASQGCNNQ
In short: as §1

DYRK3 = DYRK3 (Homo sapiens, UniProt O43781)
In short: as §1

c-Src = c-Src (Homo sapiens, UniProt P12931)
Chain of c-Src (P12931 whole entry): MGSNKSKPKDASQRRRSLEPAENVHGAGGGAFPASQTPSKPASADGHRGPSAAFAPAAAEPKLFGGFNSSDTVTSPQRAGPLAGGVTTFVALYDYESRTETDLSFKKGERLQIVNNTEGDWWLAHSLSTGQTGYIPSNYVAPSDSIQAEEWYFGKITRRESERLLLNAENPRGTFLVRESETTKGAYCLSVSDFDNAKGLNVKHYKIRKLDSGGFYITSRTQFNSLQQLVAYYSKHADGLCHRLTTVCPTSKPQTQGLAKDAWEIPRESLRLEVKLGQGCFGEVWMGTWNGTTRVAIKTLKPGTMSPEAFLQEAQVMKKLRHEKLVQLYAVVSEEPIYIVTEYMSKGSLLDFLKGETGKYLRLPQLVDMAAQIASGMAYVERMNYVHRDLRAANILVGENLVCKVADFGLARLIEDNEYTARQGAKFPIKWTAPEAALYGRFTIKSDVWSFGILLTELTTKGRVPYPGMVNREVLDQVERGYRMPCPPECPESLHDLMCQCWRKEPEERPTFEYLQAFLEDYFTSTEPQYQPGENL
In short: as §1

CHK2 = target: T5, CHK2 (Homo sapiens, UniProt O96017)
T5 construct: gene CHEK2
In short: as §1

MEKK3 = target: T6, MEKK3 (Homo sapiens, UniProt Q99759)
T6 construct: gene MAP3K3
T6 sequence (Q99759 whole entry): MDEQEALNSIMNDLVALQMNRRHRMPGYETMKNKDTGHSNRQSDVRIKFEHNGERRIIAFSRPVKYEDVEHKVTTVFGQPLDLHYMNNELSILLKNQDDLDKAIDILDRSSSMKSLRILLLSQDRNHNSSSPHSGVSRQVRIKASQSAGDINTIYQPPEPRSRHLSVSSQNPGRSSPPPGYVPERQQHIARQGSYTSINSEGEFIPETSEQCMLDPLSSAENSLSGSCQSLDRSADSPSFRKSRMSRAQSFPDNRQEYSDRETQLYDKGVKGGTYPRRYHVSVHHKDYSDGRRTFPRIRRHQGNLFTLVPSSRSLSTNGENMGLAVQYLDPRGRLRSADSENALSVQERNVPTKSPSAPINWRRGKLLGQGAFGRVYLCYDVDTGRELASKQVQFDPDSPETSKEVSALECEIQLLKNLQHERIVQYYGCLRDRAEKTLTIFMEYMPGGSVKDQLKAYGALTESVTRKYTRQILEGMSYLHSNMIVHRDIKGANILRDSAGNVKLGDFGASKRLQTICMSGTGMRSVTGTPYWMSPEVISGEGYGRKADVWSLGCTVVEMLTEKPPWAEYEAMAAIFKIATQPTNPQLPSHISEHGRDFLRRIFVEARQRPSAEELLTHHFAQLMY
In short: as §1

LIMK2 = LIMK2 (Homo sapiens, UniProt P53671)
In short: as §1

CDK4/cyclin D3 = CDK4/cyclin D3 (Homo sapiens, UniProt P11802)
In short: as §1

EPHA7 = EPHA7 (Homo sapiens, UniProt Q15375)
In short: as §1

PKCtheta = target: T7, PKCtheta (Homo sapiens, UniProt Q04759)
T7 construct: gene PRKCQ
T7 sequence (Q04759 whole entry): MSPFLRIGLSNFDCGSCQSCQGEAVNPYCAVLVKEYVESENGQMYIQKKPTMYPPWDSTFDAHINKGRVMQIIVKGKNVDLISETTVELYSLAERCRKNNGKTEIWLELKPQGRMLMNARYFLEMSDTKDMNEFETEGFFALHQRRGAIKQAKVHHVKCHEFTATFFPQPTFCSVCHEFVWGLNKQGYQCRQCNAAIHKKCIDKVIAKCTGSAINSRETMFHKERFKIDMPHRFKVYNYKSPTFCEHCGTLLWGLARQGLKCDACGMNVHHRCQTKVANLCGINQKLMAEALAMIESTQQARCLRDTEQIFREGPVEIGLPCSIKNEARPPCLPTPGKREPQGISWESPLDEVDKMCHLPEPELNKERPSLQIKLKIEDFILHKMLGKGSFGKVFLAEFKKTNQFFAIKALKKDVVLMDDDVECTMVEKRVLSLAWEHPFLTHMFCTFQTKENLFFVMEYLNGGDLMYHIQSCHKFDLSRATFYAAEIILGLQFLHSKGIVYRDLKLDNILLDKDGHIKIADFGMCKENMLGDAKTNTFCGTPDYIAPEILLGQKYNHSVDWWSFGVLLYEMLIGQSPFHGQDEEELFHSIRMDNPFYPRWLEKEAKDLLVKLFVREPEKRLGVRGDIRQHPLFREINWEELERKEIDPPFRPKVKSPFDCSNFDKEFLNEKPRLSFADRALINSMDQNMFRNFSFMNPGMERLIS
In short: as §1

BMPR2 = BMPR2 (Homo sapiens, UniProt Q13873)
In short: as §1

GSK3b = GSK3b (Homo sapiens, UniProt P49841)
In short: as §1

CSK = CSK (Homo sapiens, UniProt P41240)
In short: as §1

[1] = read-out: % Enzyme Activity (relative to DMSO controls) / TP-0005801 (0.3µM) / Data 1
[2] = read-out: % Enzyme Activity (relative to DMSO controls) / TP-0005801 (0.3µM) / Data 2

COc1cc(N2CCN(C)CC2)c(C)cc1Nc1ncc(Br)c(Nc2cccnc2N(C)C)n1 [TP-5801]
remaining activity at 0.3 µM (MKK7; [1]): 103%
remaining activity at 0.3 µM (MKK7; [2]): 102%
remaining activity at 0.3 µM (MUSK; [1]): 62%
remaining activity at 0.3 µM (MUSK; [2]): 57.2%
remaining activity at 0.3 µM (ULK2; [1]): 86.5%
remaining activity at 0.3 µM (ULK2; [2]): 82.4%
remaining activity at 0.3 µM (TAOK1; [1]): 73.3%
remaining activity at 0.3 µM (TAOK1; [2]): 68.3%
remaining activity at 0.3 µM (MEKK6; [1]): 95.3%
remaining activity at 0.3 µM (MEKK6; [2]): 95.2%
remaining activity at 0.3 µM (MSK1/RPS6KA5; [1]): 127%
remaining activity at 0.3 µM (MSK1/RPS6KA5; [2]): 123%
remaining activity at 0.3 µM (PKCb2; [1]): 94.4%
remaining activity at 0.3 µM (PKCb2; [2]): 93.6%
remaining activity at 0.3 µM (MSSK1/STK23; [1]): 89.7%
remaining activity at 0.3 µM (MSSK1/STK23; [2]): 88.8%
remaining activity at 0.3 µM (MAPKAPK3; [1]): 104%
remaining activity at 0.3 µM (MAPKAPK3; [2]): 103%
remaining activity at 0.3 µM (DYRK3; [1]): 126%
remaining activity at 0.3 µM (DYRK3; [2]): 124%
remaining activity at 0.3 µM (c-Src; [1]): 107%
remaining activity at 0.3 µM (c-Src; [2]): 106%
remaining activity at 0.3 µM (CHK2; [1]): 103%
remaining activity at 0.3 µM (CHK2; [2]): 102%
remaining activity at 0.3 µM (MEKK3; [1]): 92.4%
remaining activity at 0.3 µM (MEKK3; [2]): 88.5%
remaining activity at 0.3 µM (LIMK2; [1]): 114%
remaining activity at 0.3 µM (LIMK2; [2]): 108%
remaining activity at 0.3 µM (CDK4/cyclin D3; [1]): 91.7%
remaining activity at 0.3 µM (CDK4/cyclin D3; [2]): 90.8%
remaining activity at 0.3 µM (EPHA7; [1]): 95.2%
remaining activity at 0.3 µM (EPHA7; [2]): 94%
remaining activity at 0.3 µM (PKCtheta; [1]): 91.3%
remaining activity at 0.3 µM (PKCtheta; [2]): 90.3%
remaining activity at 0.3 µM (BMPR2; [1]): 89.7%
remaining activity at 0.3 µM (BMPR2; [2]): 89.2%
remaining activity at 0.3 µM (GSK3b; [1]): 96.4%
remaining activity at 0.3 µM (GSK3b; [2]): 95.7%
remaining activity at 0.3 µM (CSK; [1]): 92.6%
remaining activity at 0.3 µM (CSK; [2]): 89.8%
